According to patent US20210238169A1, “PROCESS FOR PREPARING A COMPOUND OF FORMULA (XIII)” (PULMOCIDE LIMITED, priority 2014, published 2021):
Converted amounts (≈) assume the structure as drawn. Like-named read-outs stand apart in the source and are kept apart here.

How the values were obtained:
[1] = tested on: Aspergillus fumigatus (NCPF2010); experiment: Resazurin-microtitre assay of planktonic fungal growth; assay type: cell-based
Experimental: This assay was conducted using a modified, published method (Monteiro et al., 2012). Spores of Aspergillus fumigatus (NCPF2010, Public Health England, Wiltshire) were cultured in Sabouraud dextrose agar for 3 days. A stock spore suspension was prepared from a Sabouraud dextrose agar culture by washing with PBS-tween (10 mL; PBS containing 0.05% Tween-20, 100 U/mL Penicillin and 100 U/mL Streptomycin). The spore count was assessed using a Neubauer haemocytometer and, using PBS, adjusted to 10^6 spores/mL. A working suspension of spores (10^4 spores/mL) was prepared in filter sterilised MOPS RPMI-1640 (50 mL; RPMI-1640 containing 2 mM L-glutamine, 2% glucose and 0.165 M MOPS, buffered to pH 7 with NaOH). Resazurin sodium salt (100 μL of 1% solution; Sigma-Aldrich, Dorset, UK) was added to the spore suspension and mixed well. The spore suspension-resazurin mixture (100 μL/well) was added to 384-well plates (Catalogue number 353962, BD Falcon, Oxford, UK). Simultaneously, test compounds (0.5 μL DMSO solution) were added to 100 μL of the spore-resazurin mixture in quadruplicate to provide a final DMSO solution of 0.5% using an Integra VIAFLO 96 (Intergra, Zizers, Switzerland). For non-spore control wells, MOPS-RPMI-resazurin solution (100 μL) was added instead of the spore-resazurin mixture. The plate was covered with a Breathe Easier membrane (Catalogue No Z763624, Sigma-Aldrich, Dorset, UK), and incubated (35° C., 5% CO2) until fluorescence in the inoculated wells was double that of the control wells (around 24 hr). The fluorescence of each well (545 nm (excitation)/590 nm (emission), gain 800, focal height 5.5 mm) was determined using a multi-scanner (Clariostar: BMG, Buckinghamshire, UK). The percentage inhibition for each well was calculated and the MIC50, MIC75 and MIC90 values were calculated from the concentration-response curve generated for each test compound.

[2] = tested on: BEAS2B cells; experiment: Cell viability: resazurin assay; assay type: cell-based, human; details: n = 1-5
Experimental: (§1) BEAS2B cells were seeded in 384-well plates (100 μL; 3000/well/; BD Falcon, Catalogue No 353962) in RPMI-LHC8 (RPMI-1640 and LHC8 media combined in equal proportions) one day before experimentation. For cell-free control wells, RPMI-LHC8 (100 μL) was added. Test compounds (0.5 μL of a DMSO solution) were added to give a final DMSO concentration of 0.5% using an Integra VIAFLO 96 (Integra, Zizers, Switzerland). BEAS2B cells were incubated with each test compound for 1 day (37° C./5% CO2 in RPMI-LHC8). After addition of resazurin stock solution (5 μL, 0.04%) the plates were incubated for a further 4 hr (37° C./5% CO2). The fluorescence of each well at 545 nm (excitation) and 590 nm (emission) was determined using a multi-scanner (Clariostar: BMG Labtech). The percentage loss of cell viability was calculated for each well relative to vehicle (0.5% DMSO) treatment. Where appropriate, a CC50 value was calculated from the concentration-response curve generated from the concentration-response curve for each test compound.

[3] = tested on: Aspergillus fumigatus isolates; experiment: Broth microdilution assay of planktonic fungal growth (modified EUCAST); assay type: cell-based; details: read-out: MIC75
Experimental: This assay was conducted using a modified method published by EUCAST (Rodriguez-Tudela et al., 2008). Spores of Aspergillus fumigatus (NCPF2010, NCPF7010 (Methionine 220 mutation), NCPF7099 (Glycine G54 mutation) from Public Health England, Wiltshire; TR34/L98H mutants from St Louis Hospital, Paris, France) were cultured in Sabouraud dextrose agar for 3 days. A stock spore suspension was prepared from a Sabouraud dextrose agar culture by washing with PBS-tween (10 mL; PBS containing 0.05% Tween-20, 100 U/mL Penicillin and 100 U/mL Streptomycin). The spore count was assessed using a Neubauer haemocytometer and then adjusted to 10^6 spores/mL with PBS. A working suspension of spores (2×10^5 spores/mL) was prepared in filter sterilised, BSA MOPS RPMI-1640 (50 mL; RPMI-1640 containing 2 mM L-glutamine, 0.5% BSA, 2% glucose, 0.165 M MOPS, buffered to pH 7 with NaOH). For the assay, BSA MOPS RPMI-1640 (50 μL/well) was added throughout the 384-well plate (Catalogue number 353962, BD Falcon, Oxford, UK) first. Test compounds (0.5 μL DMSO solution) were then added in quadruplicate using an Integra VIAFLO 96 (Integra, Zizers, Switzerland), and mixed well using a plate mixer. Subsequently 50 μL of the working spore suspension prepared above was added to all wells except non-spore control wells. For non-spore control wells, BSA MOPS-RPMI solution (50 μL/well) was added instead. The plate was covered with a plastic lid, and incubated (35° C. with ambient air) for 48 hr. The OD of each well at 530 nm was determined using a multi-scanner (Clariostar: BMG, Buckinghamshire, UK). The percentage inhibition for each well was calculated and the MIC50, MIC75 and MIC90 values were calculated from the concentration-response curve generated for each test compound.

[4] = tested on: Aspergillus fumigatus isolates; experiment: as above; assay type: cell-based; details: isolate NCPF7100, broth microdilution, read-out: MIC75
[5] = tested on: Aspergillus fumigatus; experiment: Aspergillus fumigatus infection of BEAS2B bronchial epithelial cells (GM in supernatant); assay type: cell-based
Experimental: BEAS2B cells were seeded in 96-well plates (100 μL; 30,000 cells/well; Catalogue No 3596, Sigma Aldrich, Dorset, UK) in 10% FBS RPMI-1640 and were then incubated (37° C., 5% CO2) for one day before experimentation. Test compounds (0.5 μL DMSO solution) or vehicle (DMSO) were added to each well to give a final DMSO concentration of 0.5%. BEAS2B cells were incubated with test compounds for 1 hr (35° C., 5% CO2) before infection with Aspergillus fumigatus (20 μL; Public Health England) conidia suspension (0.5×10^5/ml in 10% FBS RPMI-1640). The plate was incubated for 24 hr (35° C., 5% CO2). Supernatant (50 μL) was collected and transferred to a PCR plate (Catalogue No L1402-9700, Starlab, Milton Keynes, UK), which was frozen (−20° C.) until use. After thawing, supernatant (5 μL) was diluted 1:20 by adding R7-PBS solution (95 μL; 1:4 R7 to PBS; Bio-Rad Laboratories, Redmond, Wash., USA). GM levels in these samples (50 μL) were measured using Platelia GM-EIA kits (Bio-Rad Laboratories, Redmond, Wash., USA). The percentage inhibition for each well was calculated and the IC50 value was calculated from the concentration-response curve generated for each test compound.

[6] = Cell viability: resazurin assay; assay type: cell-based, human; details: human, BEAS2B cells; n = 1-5
Experimental: as §1

Compound | Planktonic fungal growth MIC50 [1] [µM] | Planktonic fungal growth MIC75 [1] [µM] | CC50 [2] [nM] | MIC ([3]; isolate L98H, broth microdilution) [µM] | MIC ([3]; isolate NCPF2010, broth microdilution) [µM] | MIC ([3]; isolate NCPF7099, broth microdilution) [µM] | MIC [4] [µM] | MIC50 [5] [µM] | CC50 at 1 day [6] [nM] | MIC ([3]; Aspergillus fumigatus) [µM] | MIC ([3]; Aspergillus fumigatus, isolate NCPF2010, broth microdilution) [µM] | MIC ([3]; Aspergillus fumigatus, isolate NCPF7099, broth microdilution) [µM] | MIC ([4]; Aspergillus fumigatus) [µM]
C[C@@H]1[C@H](O)[C@@H](C)/C=C/C=C/C=C/C=C/C=C/C=C/C=C/[C@H](O[C@@H]2O[C@H](C)[C@@H](O)[C@H](N)[C@@H]2O)C[C@@H]2O[C@](O)(C[C@@H](O)C[C@@H](O)[C@H](O)CC[C@@H](O)C[C@@H](O)CC(=O)O[C@H]1C)C[C@H](O)[C@H]2C(=O)O [Amphotericin B] | 0.0285 | 0.0644 | 977 | 0.209 (≈ 0.193 µg/mL) | 0.382 (≈ 0.353 µg/mL) | 0.365 (≈ 0.337 µg/mL) | >1.08 | – | – | – | – | – | –
[2H]c1c([2H])c(NC(=O)c2ccc(N3CCN(c4ccc(OC[C@@H]5CO[C@@](Cn6cncn6)(c6ccc(F)cc6F)C5)c(C)c4)CC3)cc2)c([2H])c([2H])c1F [Compound (I)•4[^2H], 4-(4-(4-(((3R,5R)-5-((1H-1,2,4-triazol-1-yl)methyl)-5-(2,4-difluorophenyl)tetrahydrofuran-3-yl)methoxy)-3-methylphenyl)piperazin-1-yl)-N-(4-fluorophenyl-2,3,5,6-d4)benzamide] | – | – | – | – | – | – | – | 0.00315 (≈ 0.00216 µg/mL) | > 14600 | 0.07 (≈ 0.0481 µg/mL) | 0.0147 (≈ 0.0101 µg/mL) | 0.0137 (≈ 0.00941 µg/mL) | 0.0286 (≈ 0.0196 µg/mL)
